The structures appear in SMILES notation. “Also recorded” adds a separate entry of the source. Marks after values point to notes of the source that are not given here.

The source of these data is publication PMC7018972, “Novel and selective inactivators of Triosephosphate isomerase with anti-trematode activity” (Scientific Reports, 2020).

The test system of data set [1] is thioredoxin glutathione reductase. Set-up: method as in PMID 22536349. The conditions noted are these: cited from earlier work.
The next data set deals with S. mansoni somules. The experiment in a line: S. mansoni somules phenotypic screen in vitro. To be noted: for SOMULES SEVERITY SCORE: Table 2S, 10 uM. Format: cell-based, Schistosoma mansoni.
Data set [2] has as its system murine macrophages and human peripheral blood mononuclear cells. Details: method as in PMID 22536349. To be noted: at 100 µM; cited from earlier work.
Data set [3] in a line: Acute oral toxicity (up-and-down). In kind it is in vivo. To be noted: mice. The protocol:
Briefly, healthy young adult male BALB/c mice (30 days old, 25 to 30 g) were used in this study. […] The animal was fasted, maintained, and observed for 14 days according to the OECD guidelines. If the mouse survived for the first 48 h, another animal received the same dose. If this was repeated, a third animal was dosed with 2,000 mg/kg and also observed for 14 days. The experiment ends at 14 days post-administration, if there are no signs of toxicity, the (LD50) is the administered dose, if not, the software AOT AOT425 Stat program recommendation was followed. […] In parallel, sodium oleate was dissolved in phosphate buffer and left in an orbital shaker for 12 h at room temperature. The former was then added to the evaporated residue, and the mixture was homogenized and placed in an ultrasonic bath at full power for 30 min. The sample was kept at room temperature until use.

The subject of a further data set is NEJ. Details: method as in PMID 22536349. The conditions noted are these: 48 h, fixed dose of 20 µM; cited from earlier work.
Another data set relates to S. mansoni adults. Description: S. mansoni adults phenotypic screen ex vivo. In kind it is cell-based, Schistosoma mansoni. The conditions noted are these: for ADULTS SEVERITY SCORE: Table 2S, 5 uM. The source says:
The NMRI isolate of S. mansoni was maintained by passage through Biomphalaria glabrata snails and 3–5 week-old, female Golden Syrian hamsters (Charles River, San Diego, CA) as intermediate and definite hosts, respectively. A dose of 600 infective larvae (cercariae) was used to infect hamsters. The acquisition, preparation and in vitro maintenance of S. mansoni post-infective larvae (schistosomula or somules) and adults have been already described[5],[50],[51]. Vertebrate animal maintenance and handling at the University of California San Diego Animal Care Facility were in accordance with protocols approved by the university’s Institutional Animal Care and Use Committee (IACUC).
Phenotypic screens with 42-day-old, adult parasites were performed in 24-well plates (Costar cat.# 3526) containing the above medium and approximately five adult males and two females per well. Compound was added in a volume of up to 1 μL DMSO at a concentration of 5 µM (0.05% DMSO final). Assay plates were incubated at 37 °C in a 5% CO2 environment. Parasite phenotypes were recorded at 4, 8 and 24 h using a Zeiss Axiovert 40 C.
Schistosome phenotypic responses were recorded employing a series of ‘descriptors,’ such as rounding, degeneration, overactivity, loss of translucency and changes in motility, as described previously[5],[50],[51],[53]. To allow for comparisons of compound activity, each descriptor was awarded a value of 1 and these were added up to a maximum ‘severity score’ of 4. Evidence of degeneracy or death was awarded the maximum score of 4. Scores were averaged across duplicate wells for each compound (see details in the supporting information).

The test system of data set [4] is adult form of F. hepatica. Description: Ex-vivo assay in the adult form of F. hepatica. Format: cell-based, Fasciola hepatica. As for the experimental part: F. hepatica were collected from natural infections of cattle obtained from Casablanca slaughterhouse in Paysandú, Uruguay[49]. […] After flukes emptied their gut content (i.e. the gut was not dark anymore) they were transferred to 6 well plates (one fluke per well) with 2 mL of RPMI 1640 media with 200 U/mL Penicillin G sulfate, […] streptomycin sulfate, 500 ng/mL amphotericin B and 10 mM glucose at 37 °C. […] The antiparasitic efficacy was expressed as the percentage reduction of the number of flukes in the treated group compared with the control group.

For `Cc1ccc(-c2nsc(S(=O)(=O)c3ccc(C)cc3)n2)cc1` [Compound 187], in data set [1], the “inhibition of thioredoxin glutathione reductase in words” value is recorded as “moderate inhibitor”. Moreover, the “S. mansoni somules severity score” value in the data set on S. mansoni somules (Table 2, 24 h, score 0 to maximum 4) is listed as 4 (24 h)^##. For the same compound, the “SOMULES SEVERITY SCORE” value in the data set on S. mansoni somules (24 h), with S. mansoni somules (48 h) and with S. mansoni somules (3d) was 4 in each case. For the same compound, in the data set on S. mansoni somules (in the first 24 h), the “effect on S. mansoni somules in words” value was “lethal to somules”. Further, the toxicity in words entry in data set [2] is listed as “non-toxic”. In addition, in data set [3], the “acute oral toxicity in words” value is reported as “low toxicity”. In data set [3] (up-and-down, 14 days), the LD50 was at least 2000 mg/kg body weight. The “effect on NEJ in words” value with NEJ is listed as “showed effect”. Besides, the “effect on S. mansoni adults in words” value in the data set with S. mansoni adults (24 h, 5 µM) was “decreased the motility of adults and the ability of their oral and ventral suckers to adhere; also recorded: decreased motility and loss of their ventral sucker adherence to the plate floor”. Further, the “ADULTS SEVERITY SCORE” value came to 0 in the data set on S. mansoni adults (4 h), 0 with S. mansoni adults (8 h) and 2 in the data set with S. mansoni adults (24 h). Besides, the “effect on adult F. hepatica in words” value in data set [4] (after 24 h, 10 µM) is recorded as “death of all the parasites”; in data set [4] (first 4 h at 10 µM) it was “parasites were affected”.
